In this test the target is Human CCR2 (Homo sapiens, UniProt P41597). The following applies: at 10 μM; human CCR2-expressing cells (THP-1); human MCP-1 30 nM; Ca2+ transient increase.
Chain of Human CCR2 (P41597 1-360 isoform P41597-2): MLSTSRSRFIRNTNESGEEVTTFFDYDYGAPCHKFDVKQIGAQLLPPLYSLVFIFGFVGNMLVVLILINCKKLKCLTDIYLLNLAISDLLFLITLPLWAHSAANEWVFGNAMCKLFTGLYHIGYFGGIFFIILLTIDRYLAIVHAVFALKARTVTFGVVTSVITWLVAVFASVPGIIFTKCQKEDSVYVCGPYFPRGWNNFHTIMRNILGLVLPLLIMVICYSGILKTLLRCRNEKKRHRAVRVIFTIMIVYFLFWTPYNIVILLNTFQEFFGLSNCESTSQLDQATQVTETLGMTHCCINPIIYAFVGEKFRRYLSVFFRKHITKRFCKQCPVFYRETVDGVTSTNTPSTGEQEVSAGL

Procedure: (5) Inhibition test on the binding of MCP-1 to CCR2 (activity of MCP-1 to induce transient increase of Ca ion).
Then, 4-fold to 8-fold 1×Hanks/HEPES (20 mM; pH 7.4)/Probenecid (2.5 mM) was added thereto, followed by further incubation at 37° C. for 30 minutes under shading. After the cells were washed with 1×Hanks/HEPES (20 mM; pH 7.4)/Probenecid (2.5 mM) solution, the cells were suspended again by the same solution to give a density of 2.0×10^6 cells/ml and added to a 96-well plate at 100 μl/well. Each of the test compounds was added, and 3 minutes thereafter, a recombinant human MCP-1 (PeproTach) diluted with 1×Hanks/HEPES (20 mM; pH 7.4)/Probenecid (2.5 mM) was added thereto to a final concentration of 30 nM. Transient increase in the intracellular Ca^2+ concentration induced by the human MCP-1 was measured using a Ca^2+ detector for 96 well use (Hamamatsu Photonics), and inhibition ratio (%) of the test compound was calculated by the following calculation formula. Inhibition ratio=(Ec−Ea)/Ec×100 • Ec: measured value of Ca^2+ transient increase by MCP-1 • Ea: measured value of Ca^2+ transient increase by MCP-1 when a test compound was added.

As to `CCCN1C(=O)N(CCCNC(=O)OCc2ccccc2)CCC12CCN(CCc1ccccc1)CC2` [Example 37, phenylmethyl{3-[2-oxo-9-(2-phenylethyl)-1-propyl-1,3,9-triazaspiro[5.5]undeca-3-yl]propyl}carbamate], the inhibition ratio was ≥ 50%.

For the origin of these results see patent US7498323B2, “Spiro-piperidine compounds and medicinal use thereof” (Ono Pharmaceuticals Co., Ltd., priority 2003, dated 2009).
